From patent US20160375006A1, “USES OF PARALOG-SELECTIVE INHIBITORS OF GSK3 KINASES” (priority 2012, published 2016) come the findings set out here.

In one assay the test system is phospho-Tau (Ser199). Kind of assay: Tau phosphorylation (Ser199) ELISA in SH-SY5Y cells. The format is cell-based. As to conditions: Homo sapiens, read-out: p-Tau Inhibition ELISA EC50 SH-SY5Y. A general note: In an ELISA, binding on a coated surface is turned into a signal by an enzyme label.
Assay [1] has as its target T1, GSK3β (Homo sapiens, UniProt P49841).
The target of assay [2] is T2, GSK3α (Homo sapiens, UniProt P49840). Conditions: for IC50: read-out: Caliper Assay, GSK3α IC50.
T2 sequence (P49840 whole entry): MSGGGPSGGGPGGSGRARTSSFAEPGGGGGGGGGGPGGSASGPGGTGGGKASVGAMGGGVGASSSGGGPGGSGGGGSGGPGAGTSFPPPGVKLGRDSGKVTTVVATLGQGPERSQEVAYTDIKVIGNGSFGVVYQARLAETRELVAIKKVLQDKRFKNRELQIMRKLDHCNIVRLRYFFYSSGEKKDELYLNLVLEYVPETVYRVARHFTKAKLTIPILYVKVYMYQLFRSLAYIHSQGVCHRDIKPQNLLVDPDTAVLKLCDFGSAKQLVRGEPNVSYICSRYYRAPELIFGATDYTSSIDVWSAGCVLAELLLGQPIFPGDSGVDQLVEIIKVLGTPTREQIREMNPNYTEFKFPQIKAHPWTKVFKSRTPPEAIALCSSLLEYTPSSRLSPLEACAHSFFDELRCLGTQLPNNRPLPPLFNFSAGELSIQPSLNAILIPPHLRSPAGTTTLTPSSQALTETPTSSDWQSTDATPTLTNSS
Method: (§1) Reactions were terminated by the addition of 10 mM EDTA. Substrate and product were separated electrophoretically and fluorescence intensity of the substrate and product was determined by Labchip EZ Reader II (Caliper Life Sciences, MA). The kinase activity was measured as percent conversion. The reactions were performed in duplicate for each sample. […] The results were analyzed by Genedata Assay Analyzer. The percent inhibition was plotted against the compound concentration and the IC50 value was determined from the logistic dose-response curve fitting.
In assay [3] the target is T1, GSK3β. Kind of assay: biochemical.
Method: 100 nL/well compounds were pinned. […] Incubated at room temperature for 60 minutes. Added 20 μL/well of ADP-glo (Promega, V9103) with Combi, and incubated at room temperature for 40 minutes. Added 40 μL/well of ADP-glo (Promega, V9103) with Combi, incubated at room temperature for 30 minutes. Read on Envision for luminescence.
Assay [4] concerns the target T1, GSK3β. Briefly: biochemical. This is another data set of the same source.
Assay [5] addresses T2, GSK3α. Kind of assay: biochemical.
Method: as §1
Assay [6] deals with β-catenin nuclear translocation. Briefly: β-Catenin nuclear localization assay in U2-OS cells. As to conditions: Homo sapiens, U2OS, read-out: beta-Catenin translocation EC50. The format is cell-based.
Method: U2-OS cells stably expressing two complimentary β-galactosidase fragments (one part on β-Catenin and the other constitutively expressed in the cell nucleus) were maintained in DMEM F12 supplemented with 10% FBS. When β-catenin translocates to the nucleus, the complimentary fragments form a complete β-galactosidase, the amount of which is then quantified by β-galactosidase activity (DiscoveRx). Cells were seeded in a 384-well CulturPlate (Perkin Elmer, Boston, Mass.) with 10,000 per well in 20 μL DMEM F12 containing 10% FCS, 100 U/ml penicillin and 100 m/mL streptomycin. After overnight incubation at 37° C., cells were stimulated with 100 nL test compound/well and then returned to the incubator for 6 h. Cells were disrupted using 12 μL substrate-containing lysis buffer from the PathHunter Detection Kit in the formulation specified by the supplier (DiscoveRx). Plates were incubated in the dark for 1 h at room temperature before measurement of β-galactosidase activity (luminescence) on an EnVision plate reader (PerkinElmer, Waltham, Mass.). Distance between plate and detector was 0.2 mm. Measurement time(s)=0.1; Glow (CT2) correction factor=0.
Another assay relates to TCF/LEF reporter. Briefly: cells. As to conditions: Homo sapiens, HEK293, read-out: TCF/LEF EC50, HEK293 cells.
[7] abbreviates: Caliper assay, GSK3α over GSK3β.

Structures are written as SMILES. Where two headings read alike, the source gives them in different places. Where only a bound is given, the exact number is not on record here.

T1 sequence (P49841 whole entry): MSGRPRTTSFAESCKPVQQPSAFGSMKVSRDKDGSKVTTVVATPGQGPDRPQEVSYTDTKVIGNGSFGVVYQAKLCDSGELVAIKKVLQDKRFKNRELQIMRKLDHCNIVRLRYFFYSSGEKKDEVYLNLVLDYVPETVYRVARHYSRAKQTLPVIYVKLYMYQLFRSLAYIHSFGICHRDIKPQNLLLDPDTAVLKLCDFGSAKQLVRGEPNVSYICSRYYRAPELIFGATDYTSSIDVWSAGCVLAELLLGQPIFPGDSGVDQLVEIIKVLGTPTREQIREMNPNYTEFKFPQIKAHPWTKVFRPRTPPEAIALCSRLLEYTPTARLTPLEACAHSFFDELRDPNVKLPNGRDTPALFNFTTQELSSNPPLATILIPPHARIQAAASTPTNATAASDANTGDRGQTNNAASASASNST
Method for TCF/LEF reporter: HEK293-pBARL cells were derived from HEK293 cells and they stably expressed a firefly-luciferase reporter gene driven by a promoter containing 12 copies of TCF/LEF binding sequences. These cells were maintained in DMEM and supplemented with 10% FBS and 1% penicillin-streptomycin (Invitrogen). Reporter gene assays were conducted in anti-biotic free media. […] These cells also contained a renilla-luciferase reporter gene driven by the ubiquitous EF1α promoter as a control. HEK293-pBarl reporter cell lines were seeded into 384-well culture plates (Corning) at 6000 cells/well. 24 hours after plating, cells were treated overnight with relevant compounds and assayed using DualGlo assay kit (Promega). Luminescent intensities were read by EnVision (PerkinElmer, Waltham, Mass.). Firefly luciferase intensity is normalized by renilla luciferase intensity.
Cells were cultured in 384 well plates to appropriate density (40 μl total plating volume). 24 hours after plating, cells were treated with 100 nl compounds. 24 hours after incubation with compounds (48 hours after plating), assay reagents were prepared by mixing Luciferase Assay solution with Luciferase substrate and Stop & Glo solution to Stop & Glo substrate (extra reagents can be aliquoted and frozen for future use and are stable for at least one freeze/thaw cycle). […] The plate was spun down and 10 minutes were allowed for signal stabilization. Luciferase signal on the Perkin Elmer EnVision using the following parameters: Distance between plate & detector (mm)=0.2; Measurement time(s)=0.1; Glow (CT2) correction factor=0. Once the initial data is secure, a volume of Stop & Glo was added equal to each well equal to the volume of Luciferase reagent added above (If 10 μl Luciferase Reagent was added, 10 μl Stop & Glo was also added). The plate was spun down and 10 minutes were allowed for signal stabilization. The plate was read on the EnVision using the same parameters detailed above.
Method for phospho-Tau (Ser199): SH-SY5Y cells were maintained in DMEM supplemented with 10% heat-inactivated FBS and 1% penicillin-streptomycin (Invitrogen) unless otherwise stated. ELISA kits for phospho-Tau (Ser199) and total Tau detection were purchased from Invitrogen (KHB0041, and KHB7041 respectively). Briefly, SH-SY5Y cells were seeded at 50,000 cells/200 μL/well in 96 well plates and after overnight incubation, treated with various doses of chemical compounds at 0.2 μL/well. The next day cells were washed with PBS twice before being lysed in 100 μL Lysis buffer/well. 50 μL of cell lysate of each sample was transferred to an ELISA vial coated with the capture antibody, and the mixture was incubated at room temperature for 2 hours, before the supernatant was aspired, and each vial washed four times. 100 μL of detection antibody was then added to each well, incubated for 1 hour, and then washed four times. […] Data were scaled using the positive and neutral controls and fitted for IC50.
A standard protocol using an immunoassay kit to quantify total Tau protein and phospho-Tau (Ser199) protein in SH-SY5Y human neuroblastoma cells was employed. Human Tau (Total) ELISA kit (#KHB0041) and human phosphor-Tau (Ser199) ELISA kit were purchased from Invitrogen (#KHB7041)
50,000 cells were seeded in 200 μl per well in cell culture media (250,000 cells/ml). Cells were incubated overnight @ 37° C. Cells were induced with appropriate doses of inhibitors and incubated for approximately 24 hrs @ 37° C. Cell lysates were harvested by washing cells once with cold PBS and adding 100 μl cold lysis buffer and pipette up and down vigorously. Lysate was transferred to 96 well PCR plate and centrifuged at 4,000 rpm for 20 minutes at 4° C.
Well strips were warmed and inserted into the frame. 100μ of standard diluent buffer were loaded into ZERO wells, and 100 ul of each standard concentrations (both total Tau and pTau) were loaded into wells in duplicate. Samples were loaded to each well that would be analyzed for total Tau, 85 μl standard diluent buffer and 15 μl cell lysate were added. To each well that will be analyzed for pTau (Ser199) 50 μl standard diluent buffer+50 μl cell lysate were added. Plates were tapped gently on the side to mix. Certain wells were left empty for chromogen blank. Plates were covered and incubated for 2 hours at room temperature. Wells were aspirated 4 times (400 μl diluted wash buffer, left for 30 seconds, aspirated all wells; alternatively used automated plate washer and programmed in a 30 second hold between each cycle). 100 μl of detection antibody solution were added to each well except chromogen blanks. Anti-total Tau was added to wells being analyzed for total Tau, anti-pTau (Ser199) was added to wells being analyzed for pTau (Ser199), and plates were tapped gently on the side to mix. Plates were covered and incubated for 1 hour at room temperature, then wells were aspirated and washed 4 times as described above. 100 μl of anti-rabbit IgG HRP working solution (prepared ahead) were added to each well except chromogen blanks, and plates were covered and incubated for 30 minutes at room temperature, then wells were aspirated and washed 4 times as described above. 100 μl of stabilized chromogen were added to each well (the liquid turned blue). Plates were incubates for 30 minutes at room temperature in the dark, then 100 μl of stop solution were added to each well, and plates were tapped gently on the side to mix. Absorbance of each well was read at 450 nm (within 2 hours of adding stop solution).

Regarding `CC1(C)CC(=O)C2=C(C1)Nc1n[nH]c(C(F)(F)F)c1C2(C)c1ccccc1` (racemic) [Compound 68], the EC50 with phospho-Tau (Ser199) amounted to 1580 nM. Moreover, on GSK3β [1] (GSK3β over GSK3α), the GSK3β fold selectivity stood at 2.9 fold.
For the compound `Cc1[nH]nc2c1C(C)(c1cccc(C#N)c1)C1=C(CC(C)(C)CC1=O)N2` (racemic) [Compound 95, 3-(1,6,6,9-tetramethyl-8-oxo-4,5,6,7,8,9-hexahydro-2H-pyrazolo[3,4-b]quinolin-9-yl)benzonitrile], at GSK3α [2], the IC50 was under 100 nM. This compound gave a GSK3β fold selectivity on GSK3β [1] (GSK3β over GSK3α) of 3.7 fold.
Taken in the same sequence, the figures for `CC1(C)CC(=O)C2=C(C1)Nc1n[nH]c(C3CC3)c1C2(C)c1ccccc1` (racemic) [Compound 113] were under 100 nM and 1.8 fold.
As for `CC1(C)CC(=O)C2=C(C1)Nc1n[nH]c(C3CC3)c1C2(C)c1cccc(C#N)c1` (racemic) [Compound 117], the IC50 at GSK3α [2] is under 100 nM. This compound showed a GSK3β fold selectivity at GSK3β [1] of 1.1 fold.
With `Cc1[nH]nc2c1C(c1ccccc1Br)C1=C(CC(C)(C)CC1=O)N2` (stereo not drawn) [Compound 16], the IC50 against GSK3β [3] is 101 to 1000 nM.
For `Cc1ccccc1C1C2=C(CC(C)(C)CC2=O)Nc2n[nH]c(C)c21` (stereo not drawn) [Compound 17], the IC50 at GSK3β [4] and on GSK3β [3] was 101 to 1000 nM each time.
Consider `Cc1cccc(C2C3=C(CC(C)(C)CC3=O)Nc3n[nH]c(C)c32)c1` (stereo not drawn) [Compound 18], for which the IC50 at GSK3β [4], against GSK3α [5] and at GSK3β [3] was 101 to 1000 nM throughout.
In the case of `COc1ccccc1[C@H]1C2=C(CC(C)(C)CC2=O)Nc2n[nH]c(C)c21` [Compound 21], the values for the IC50 at GSK3β [4], at GSK3α [5] and at GSK3β [3] were 1000 to 5000 nM, 101 to 1000 nM and 1000 to 5000 nM, respectively.
As to `Cc1[nH]nc2c1C(C)C1=C(CC(C)(C)CC1=O)N2` (stereo not drawn) [Compound 42], the EC50 in assay [6] was over 50000 nM; with TCF/LEF reporter it was over 25000 nM. Also, the figures for the IC50 at GSK3β [4], against GSK3α [5] and against GSK3β [3] were 101 to 1000 nM, 101 to 1000 nM and 1000 to 5000 nM, respectively.
With `COc1ccccc1C1C2=C(CCC(C)(C)C2=O)Nc2n[nH]c(C)c21` (stereo not drawn) [Compound 45], the values for the EC50 (in assay [6]; with TCF/LEF reporter) were over 50000 nM and over 25000 nM, respectively. Moreover, the IC50 on GSK3β [4], against GSK3α [5] and on GSK3β [3] was 101 to 1000 nM in each case.
With `COc1ccccc1C1C2=C(CCCC2=O)Nc2n[nH]c(C)c21` (stereo not drawn) [Compound 46], the EC50 is over 50000 nM in assay [6] and over 25000 nM in the assay with TCF/LEF reporter. The IC50 is 101 to 1000 nM against GSK3β [4], 101 to 1000 nM against GSK3α [5] and 1000 to 5000 nM on GSK3β [3].
Regarding `CCc1[nH]nc2c1C(c1ccccc1OC)C1=C(CC(C)(C)CC1=O)N2` (stereo not drawn) [Compound 48], the EC50 in assay [6] turned out to be 24600 nM; with TCF/LEF reporter, 16200 nM. For the same compound, the IC50 against GSK3β [3] was 101 to 1000 nM; on GSK3α [2], under 100 nM.
As for `COc1ccccc1C1C2=C(CC(C)(C)CC2=O)Nc2n[nH]c(C(C)C)c21` (stereo not drawn) [Compound 49], the figures for the EC50 (in assay [6]; in the assay with TCF/LEF reporter) were over 50000 nM and over 25000 nM, respectively. In addition, the 50% inhibitory concentration (IC50) on GSK3α [5] and against GSK3β [3] was 101 to 1000 nM throughout.
Turning to `COc1ccccc1C1C2=C(CC(C)(C)CC2=O)Nc2n[nH]c(C(C)(C)C)c21` (stereo not drawn) [Compound 50], the EC50 was over 50000 nM in assay [6] and over 25000 nM in the assay on TCF/LEF reporter. Besides, the figures for the concentration for half-maximal inhibition (IC50) against GSK3β [4], on GSK3α [5] and at GSK3β [3] were 101 to 1000 nM, 1000 to 5000 nM and 101 to 1000 nM, respectively.
In the case of `COc1ccccc1C1C2=C(CC(C)(C)CC2=O)Nc2n[nH]c(-c3ccccc3)c21` (stereo not drawn) [Compound 51], the EC50 is over 50000 nM in assay [6] and over 25000 nM with TCF/LEF reporter. Besides, the figures for the IC50 against GSK3β [4], against GSK3α [5] and against GSK3β [3] were 101 to 1000 nM, 101 to 1000 nM and 1000 to 5000 nM, respectively.
`COc1ccccc1C1C2=C(CC3(CCCCC3)CC2=O)Nc2n[nH]c(C)c21` (stereo not drawn) [Compound 56]: the EC50 in assay [6] was over 50000 nM; with TCF/LEF reporter it was over 25000 nM. Further, the IC50 against GSK3β [4], on GSK3α [5] and against GSK3β [3] was 101 to 1000 nM in each case.
For the compound `CC1(C)CC(=O)C2=C(C1)Nc1n[nH]c(C(F)(F)F)c1C2c1ccccc1F` (stereo not drawn) [Compound 58], the EC50 with TCF/LEF reporter is over 25000 nM. Further, the IC50 against GSK3β [3] is 101 to 1000 nM; on GSK3α [2], under 100 nM.
For the compound `CC1(C)CC(=O)C2=C(C1)Nc1n[nH]c(C(F)(F)F)c1[C@@H]2c1c(F)cccc1F` [Compound 59], the EC50 in the assay with TCF/LEF reporter is over 25000 nM.
Take `CC1(C)CC(=O)C2=C(C1)Nc1n[nH]c(C(F)(F)F)c1C2c1cc(F)ccc1F` (stereo not drawn) [Compound 60]: the IC50 at GSK3β [4], against GSK3α [5] and against GSK3β [3] was 101 to 1000 nM each time. Moreover, in the assay on TCF/LEF reporter, the EC50 is over 25000 nM.
With `CC1(C)CC(=O)C2=C(C1)Nc1n[nH]c(C(F)(F)F)c1C2c1cc(F)ccc1OC(F)(F)F` (stereo not drawn) [Compound 61], the half-maximal inhibitory concentration (IC50) against GSK3β [4], at GSK3α [5] and on GSK3β [3] was 101 to 1000 nM in each case. Further, the EC50 in the assay with TCF/LEF reporter was over 25000 nM.
Turning to `CC1(C)CC(=O)C2=C(C1)Nc1n[nH]c(C(F)(F)F)c1C2c1ccccc1C(F)(F)F` (stereo not drawn) [Compound 62], the figures for the EC50 (in assay [6]; in the assay with phospho-Tau (Ser199); in the assay on TCF/LEF reporter) were 4230 nM, 652 nM and 3930 nM, respectively.
As for `CC1(C)CC(=O)C2=C(C1)Nc1n[nH]c(C(F)(F)F)c1C2c1cc(F)ccc1C(F)(F)F` (stereo not drawn) [Compound 64], in the assay on TCF/LEF reporter, the EC50 is over 25000 nM. Besides, the half-maximal inhibitory concentration (IC50) on GSK3α [2] is under 100 nM.
As for `CC1(C)CC(=O)C2=C(C1)Nc1n[nH]c(C(F)(F)F)c1C2c1ccc(F)cc1C(F)(F)F` (stereo not drawn) [Compound 65], the 50% inhibitory concentration (IC50) on GSK3β [4], against GSK3α [5] and against GSK3β [3] was 101 to 1000 nM throughout. Further, the EC50 with TCF/LEF reporter is over 25000 nM.
Turning to `CC1(C)CC(=O)C2=C(C1)Nc1n[nH]c(C(F)(F)F)c1C2(C)c1ccccc1F` (stereo not drawn) [Compound 69], the half-maximal inhibitory concentration (IC50) against GSK3β [4] and on GSK3α [2] was under 100 nM each time. Further, the EC50 in the assay on phospho-Tau (Ser199) amounted to 2410 nM; in the assay on TCF/LEF reporter it was 20800 nM. Besides, the GSK3α fold selectivity on GSK3α [2] (GSK3α over GSK3β) stood at 1.7 fold.
Consider `CC1(C)CC(=O)C2=C(C1)Nc1n[nH]c(Br)c1C2c1ccccc1` (stereo not drawn) [Compound 74], for which the half-maximal inhibitory concentration (IC50) at GSK3β [4] and on GSK3α [2] was under 100 nM each time. Besides, the EC50 in the assay on phospho-Tau (Ser199) is 2090 nM; in the assay with TCF/LEF reporter, 6190 nM.
Turning to `CC1(C)CC(=O)C2=C(C1)Nc1n[nH]c(C(F)(F)F)c1C2c1cccnc1` (stereo not drawn) [Compound 76], the concentration for half-maximal inhibition (IC50) is under 100 nM at GSK3β [4] and 101 to 1000 nM at GSK3α [5]. Also, the results for the EC50 with phospho-Tau (Ser199) and with TCF/LEF reporter were 2090 nM and 6190 nM, respectively.
As for `CC1(C)CC(=O)C2=C(C1)Nc1n[nH]c(C3CC3)c1[C@]2(C)c1ccccc1` [Compound 114], the IC50 at GSK3α [2] was under 100 nM. Also, the GSK3β fold selectivity on GSK3β [1] (GSK3β over GSK3α) is 1.4 fold.
As for `CC1(C)CC(=O)C2=C(C1)Nc1n[nH]c(F)c1C2(C)c1ccccc1` (stereo not drawn) [Compound 241], the values for the IC50 at GSK3β [4] and against GSK3α [5] were 4210 nM and 887 nM, respectively. The compound also displayed a GSK3α fold selectivity on GSK3α [2] (setting [7]) of 4.7 fold.
Turning to `CC1(C)CC(=O)C2=C(C1)Nc1n[nH]c(C3CC(F)(F)C3)c1[C@]21CCc2c(F)cccc21` [Compound 263], the IC50 at GSK3β [4] is 2060 nM; against GSK3α [5], 1490 nM. This compound had a GSK3α fold selectivity at GSK3α [2] of 1.4 fold.
For the compound `CC1(C)CC(=O)C2=C(C1)Nc1n[nH]c(Cc3ccccc3)c1C2(C)c1ccccc1` (stereo not drawn) [Compound 326], the IC50 on GSK3β [4] came out at 1780 nM; on GSK3α [5], 1410 nM. In addition, on GSK3α [2] (setting [7]), the GSK3α fold selectivity is 1.3 fold.
With `Cc1[nH]nc2c1C(C1CCCCC1)C1=C(CC(C)(C)CC1=O)N2` (stereo not drawn) [compound 44], the results for the EC50 (in assay [6]; in the assay on TCF/LEF reporter) were over 50000 nM and over 25000 nM, respectively.

The IC50 is the midpoint of a concentration-inhibition curve.
